Test results from patent US20210340629A1, “BIOMARKERS FOR CANCER THERAPY” (The Council of the Queensland Institute of Medical Research, priority 2018, published 2021).

Key:
PARP = PARP cleavage as a measure of apoptosis; format: cell-based, human; details: any cell line treated, data not shown
Excerpt: Having established that G9a inhibition is effective in inducing death of melanoma cells in vitro, the molecular basis for this effect was then investigated. First, cells treated with UNC0642 were examined for its effect on the cleavage of PARP as a measure of apoptosis.

normal melanocytes = assay: Cell viability by MTT assay, normal melanocytes; format: cell-based; details: 5 μM, 48 hours, FIG. 2
Method: UNC0642 was purchased from Sigma Aldrich. The panel of human melanoma cell lines, derived from cutaneous melanomas, is shown in Table 1 and the cells have all been previously described. Cells were maintained in Roswell Park Memorial Institute (RPMI) 1640 supplemented with 10% fetal bovine serum (FBS), 100 U/mL penicillin, and 100 µg/mL streptomycin in a humidified atmosphere of 5% CO2 at 37° C. Normal melanocytes were grown in Clonetics™ MGM™-4 Melanocyte Growth Medium-4 supplemented with CaCl2, phorbol-12-myristate 13-acetate (PMA), recombinant human fibroblast growth factor basic (rhFGF-B), recombinant human insulin (rh-insulin), hydrocortisone, bovine pituitary extract (BPE), FBS and GA-1000 (30 μg/ml Gentamycin and 15 ng/ml Amphotericin) (Lonza).
For proliferation studies, cells (5×10^3) were seeded in 96-place wells and allowed to adhere overnight, and incubated in fresh growth medium in the presence of either the G9a inhibitor UNC0642 (Sigma Aldrich) or the vehicle control DMSO (Sigma Aldrich). Proliferation was evaluated via real-time imaging using IncuCyte Zoom (Essen BioScience) and/or by performing a 3-(4,5-dimethylthiazol-2-yl)-2,5-diphenyltetrazolium bromide ([…]) assay. After monitoring the cells, 20 μL of MTT (5 mg/mL; Sigma-Aldrich) was added. […] The absorbance value (optical density) of each well was measured at 570 nm.

[1] = system: PD-L1 and PD-1 in CD8+ T cells; assay: Flow cytometry analysis of tumor infiltrating lymphocytes from AT3 tumors; format: in vivo, C57BL/6 mice; details: TILs from AT3 tumors, UNC0642 25 mg/kg every 2 days for 14 days, FIG. 18
Excerpt: C57BL/6 mice were purchased from the ARC Animal Resources Centre and used between the ages of 6 and 16 weeks. Groups of 3 to 8 mice per experiment were used for experimental assays, to ensure adequate power to detect biological differences. All experiments were approved by the QIMR Berghofer Medical Research Institute Animal Ethics Committee.
The C57BL/6 AT3 mammary adenocarcinoma (obtained from Dr. Trina Stewart in 2009, Peter MacCallum Cancer Centre, Melbourne, Australia) were maintained as previously described (Casciello et al PNAS 2017). The AT3 cell line was tested negative for mycoplasma. For in vivo experiments, 1×10^5 cells were subcutaneously injected into mice in a 100 μL volume.
AT3 tumor growth was measured using a digital caliper, and tumor volumes were presented as mean±SEM. For flow cytometry analyses of intratumor immune cells, mice bearing established AT3 tumor (days 14-19) were treated with the indicated antibodies or reagents and immune cells were isolated 48 to 72 hours post treatment.
Tumors tissues were harvested from mice that had been treated with mAb or otherwise and processed for flow cytometry analysis. […]

In the case of `COc1cc2c(NC3CCN(C(C)C)CC3)nc(N3CCC(F)(F)CC3)nc2cc1OCCCN1CCCC1` [UNC0642], the PARP cleavage (PARP) is reported as “No observable PARP cleavage”, the “survival of the normal melanocyte cell culture” value (normal melanocytes) is reported as “unaffected” and the “PD-L1 and PD-1 in CD8+ T cells” value [1] is reported as “down-regulation”.
